From patent US4684664A, “Derivatives of β-(4-isocyano-1,2,3,4-diepoxycyclopentyl) acrylic acid” (Kureha Kagaku Kogyo Kabushiki Kaisha, priority 1984, dated 1987)
≈ marks a conversion by molar mass, not a printed value.

How the values were obtained:
Format in all cases: cell-based
[1] = test system: Staphylococcus aureus Terajima; experiment: Antibacterial activity, agar-dilution MIC, organism No. 2; details: Staphylococcus aureus; Organism No. 2, bouillon-agar; read-out: Minimum Inhibitory Concentration
Source text: (§1) Agar-dilution method was used for determination of the antibacterial activity and antifungal activity while using bouillon-agar culture medium, and the minimum inhibitory concentration of the specimen was expressed by μg/ml of the culture medium.

[2] = test system: Staphylococcus aureus FDA 209PJc-1; experiment: Antibacterial activity, agar-dilution MIC, organism No. 1; details: Staphylococcus aureus, FDA209PJC1; Organism No. 1, bouillon-agar; read-out: Minimum Inhibitory Concentration
Source text: as §1

[3] = test system: Pseudomonas aeruginosa IFO 3445; experiment: Antibacterial activity, agar-dilution MIC, organism No. 15; details: Pseudomonas aeruginosa, IFO3445; Organism No. 15, bouillon-agar; read-out: Minimum Inhibitory Concentration
Source text: as §1

[4] = test system: Klebsiella pneumoniae PCI-602; experiment: Antibacterial activity, agar-dilution MIC, organism No. 7; details: Klebsiella pneumoniae, PCI602; Organism No. 7, bouillon-agar; read-out: Minimum Inhibitory Concentration
Source text: as §1

[5] = test system: Proteus morganii IFO 3848; experiment: Antibacterial activity, agar-dilution MIC, organism No. 18; details: Morganella morganii, IFO3848; Organism No. 18, bouillon-agar; read-out: Minimum Inhibitory Concentration
Source text: as §1

[6] = test system: Staphylococcus aureus MS 353; experiment: Antibacterial activity, agar-dilution MIC, organism No. 3; details: Staphylococcus aureus, MS353; Organism No. 3, bouillon-agar; read-out: Minimum Inhibitory Concentration
Source text: as §1

[7] = test system: Enterobacter aerogenes ATCC 13048; experiment: Antibacterial activity, agar-dilution MIC, organism No. 23; details: Klebsiella aerogenes, ATCC13048; Organism No. 23, bouillon-agar; read-out: Minimum Inhibitory Concentration
Source text: as §1

[8] = test system: Salmonella paratyphi-A 1015; experiment: Antibacterial activity, agar-dilution MIC, organism No. 10; details: Salmonella enterica, PARATYPHI, read-out: Minimum Inhibitory Concentration
Source text: as §1

[9] = test system: Micrococcus luteus ATCC 9341; experiment: Antibacterial activity, agar-dilution MIC, organism No. 25; details: Micrococcus luteus, ATCC9341; Organism No. 25, bouillon-agar; read-out: Minimum Inhibitory Concentration
Source text: as §1

Enterobacter cloacae 963 = experiment: Antibacterial activity, agar-dilution MIC, organism No. 24; details: Enterobacter cloacae, 963; Organism No. 24, bouillon-agar; read-out: Minimum Inhibitory Concentration
Source text: as §1

Proteus vulgaris OX-19 = experiment: Antibacterial activity, agar-dilution MIC, organism No. 20; details: Proteus vulgaris, OX19; Organism No. 20, bouillon-agar; read-out: Minimum Inhibitory Concentration
Source text: as §1

[10] = test system: Proteus mirabilis IFO 3849; experiment: Antibacterial activity, agar-dilution MIC, organism No. 19; details: Proteus mirabilis, IFO3849; Organism No. 19, bouillon-agar; read-out: Minimum Inhibitory Concentration
Source text: as §1

Salmonella typhi 901 = experiment: Antibacterial activity, agar-dilution MIC, organism No. 9; details: Salmonella enterica, TYPHI, read-out: Minimum Inhibitory Concentration
Source text: as §1

[11] = test system: Bacillus subtilis ATCC 6633; experiment: Antibacterial activity, agar-dilution MIC, organism No. 14; details: Bacillus subtilis, ATCC6633; Organism No. 14, bouillon-agar; read-out: Minimum Inhibitory Concentration
Source text: as §1

[12] = test system: Salmonella enteritidis G 14; experiment: Antibacterial activity, agar-dilution MIC, organism No. 12; details: Salmonella enterica, ENTERITIDIS; Organism No. 12, bouillon-agar; read-out: Minimum Inhibitory Concentration
Source text: as §1

[13] = test system: Streptococcus pyogenes Cook; experiment: Antibacterial activity, agar-dilution MIC, organism No. 4; details: Streptococcus pyogenes; Organism No. 4, bouillon-agar; read-out: Minimum Inhibitory Concentration
Source text: as §1

[14] = test system: Streptococcus faecium IFO 3826; experiment: Antibacterial activity, agar-dilution MIC, organism No. 27; details: Enterococcus faecium, IFO3826; Organism No. 27, bouillon-agar; read-out: Minimum Inhibitory Concentration
Source text: as §1

[15] = test system: Aspergillus niger IFO 6342; experiment: Antifungal activity, agar-dilution MIC, organism No. 30; details: Aspergillus niger, IFO6342; Organism No. 30, bouillon-agar; read-out: Minimum Inhibitory Concentration
Source text: as §1

[16] = test system: Escherichia coli K12 C600 IAM 1264; experiment: Antibacterial activity, agar-dilution MIC, organism No. 6; details: Escherichia coli, IAM1264; Organism No. 6, bouillon-agar; read-out: Minimum Inhibitory Concentration
Source text: as §1

[17] = test system: Proteus rettgeri IFO 3850; experiment: Antibacterial activity, agar-dilution MIC, organism No. 22; details: Providencia rettgeri, IFO3850; Organism No. 22, bouillon-agar; read-out: Minimum Inhibitory Concentration
Source text: as §1

[18] = test system: Salmonella shottmuelleri 8006; experiment: Antibacterial activity, agar-dilution MIC, organism No. 11; details: Salmonella, 8006; Organism No. 11, bouillon-agar; read-out: Minimum Inhibitory Concentration
Source text: as §1

[19] = test system: Escherichia coli NIHJ-JC-2; experiment: Antibacterial activity, agar-dilution MIC, organism No. 5; details: Escherichia coli, NIHJJC2; Organism No. 5, bouillon-agar; read-out: Minimum Inhibitory Concentration
Source text: as §1

[20] = test system: Streptococcus pyogenes IFO 3340; experiment: Antibacterial activity, agar-dilution MIC, organism No. 26; details: Streptococcus pyogenes, IFO3340; Organism No. 26, bouillon-agar; read-out: Minimum Inhibitory Concentration
Source text: as §1

[21] = test system: Mycoplasma pneumoniae IID817; experiment: Antimycoplasmal activity, MIC by phenol red colour change, organism No. 28; details: Mycoplasma, IID817; Organism No. 28, PPLO broth + 1% glucose, 37° C.; read-out: Minimum Inhibitory Concentration (MIC)
Method: Mycoplasma pneumoniae IID817 was used as the test microorganism in a culture medium prepared by adding 1% of glucose to "PPLO broth (manufactured by Difco Co.) liquid culture medium" at 37° C. with phenol red as an indicator, thereby culturing the test microorganism.

Proteus vulgaris HX-19 = experiment: Antibacterial activity, agar-dilution MIC, organism No. 21; details: Proteus vulgaris, HX19; Organism No. 21, bouillon-agar; read-out: Minimum Inhibitory Concentration
Source text: as §1

[22] = test system: Pseudomonas aeruginosa PAO 1; experiment: Antibacterial activity, agar-dilution MIC, organism No. 17; details: Pseudomonas aeruginosa, PAO1; Organism No. 17, bouillon-agar; read-out: Minimum Inhibitory Concentration
Source text: as §1

[23] = test system: Candida albicans IAM 4905; experiment: Antifungal activity, agar-dilution MIC, organism No. 29; details: Candida albicans, IAM4905; Organism No. 29, bouillon-agar; read-out: Minimum Inhibitory Concentration
Source text: as §1

[24] = test system: Salmonella typhimurium IID 971; experiment: Antibacterial activity, agar-dilution MIC, organism No. 8; details: Salmonella enterica; Organism No. 8, bouillon-agar; read-out: Minimum Inhibitory Concentration
Source text: as §1

[25] = test system: Pseudomonas aeruginosa NCTC 10490; experiment: Antibacterial activity, agar-dilution MIC, organism No. 16; details: Pseudomonas aeruginosa, NCTC10490; Organism No. 16, bouillon-agar; read-out: Minimum Inhibitory Concentration
Source text: as §1

SMILES: [C-]#[N+]C12CC3(/C=C/C(=O)Nc4cccc(C)c4)OC3C1O2 (stereo not drawn) [compound 38]
- MIC [1]: 0.1 µg/mL (≈ 0.354 µM)
- MIC [2]: < 0.05 µg/mL
- MIC [3]: > 200 µg/mL
- MIC [4]: < 0.05 µg/mL
- MIC [5]: 12.5 µg/mL (≈ 44.3 µM)
- MIC [6]: < 0.05 µg/mL
- MIC [7]: > 200 µg/mL
- MIC [8]: < 0.05 µg/mL
- MIC [9]: < 0.05 µg/mL
- MIC (Enterobacter cloacae 963): > 200 µg/mL
- MIC (Proteus vulgaris OX-19): 0.05 µg/mL (≈ 0.177 µM)
- MIC [10]: > 200 µg/mL
- MIC (Salmonella typhi 901): 1.56 µg/mL (≈ 5.53 µM)
- MIC [11]: 3.13 µg/mL (≈ 11.1 µM)
- MIC [12]: 1.56 µg/mL (≈ 5.53 µM)
- MIC [13]: 6.25 µg/mL (≈ 22.1 µM)
- MIC [14]: 12.5 µg/mL (≈ 44.3 µM)
- MIC [15]: 1.56 µg/mL (≈ 5.53 µM)
- MIC [16]: 12.5 µg/mL (≈ 44.3 µM)
- MIC [17]: 3.13 µg/mL (≈ 11.1 µM)
- MIC [18]: < 0.05 µg/mL
- MIC [19]: 12.5 µg/mL (≈ 44.3 µM)
- MIC [20]: 0.39 µg/mL (≈ 1.38 µM)
- MIC [21]: < 0.2 µg/mL
- MIC (Proteus vulgaris HX-19): 0.05 µg/mL (≈ 0.177 µM)
- MIC [22]: > 200 µg/mL
- MIC [23]: 0.78 µg/mL (≈ 2.76 µM)
- MIC [24]: 6.25 µg/mL (≈ 22.1 µM)
- MIC [25]: > 200 µg/mL

SMILES: [C-]#[N+]C12CC3(/C=C/C(=O)Nc4ccccc4C)OC3C1O2 (stereo not drawn) [compound 39]
- MIC [1]: 3.13 µg/mL (≈ 11.1 µM)
- MIC [2]: 0.78 µg/mL (≈ 2.76 µM)
- MIC [3]: > 200 µg/mL
- MIC [4]: 1.56 µg/mL (≈ 5.53 µM)
- MIC [5]: 100 µg/mL (≈ 354 µM)
- MIC [6]: 1.56 µg/mL (≈ 5.53 µM)
- MIC [7]: > 200 µg/mL
- MIC [8]: 12.5 µg/mL (≈ 44.3 µM)
- MIC [9]: < 0.05 µg/mL
- MIC (Enterobacter cloacae 963): 200 µg/mL (≈ 708 µM)
- MIC (Proteus vulgaris OX-19): 6.25 µg/mL (≈ 22.1 µM)
- MIC [10]: > 200 µg/mL
- MIC (Salmonella typhi 901): 25 µg/mL (≈ 88.6 µM)
- MIC [11]: > 200 µg/mL
- MIC [12]: 50 µg/mL (≈ 177 µM)
- MIC [13]: 100 µg/mL (≈ 354 µM)
- MIC [14]: 200 µg/mL (≈ 708 µM)
- MIC [15]: 1.56 µg/mL (≈ 5.53 µM)
- MIC [16]: > 200 µg/mL
- MIC [17]: > 200 µg/mL
- MIC [18]: 3.13 µg/mL (≈ 11.1 µM)
- MIC [19]: > 200 µg/mL
- MIC [20]: 25 µg/mL (≈ 88.6 µM)
- MIC [21]: < 0.2 µg/mL
- MIC (Proteus vulgaris HX-19): < 0.05 µg/mL
- MIC [22]: > 200 µg/mL
- MIC [23]: 0.39 µg/mL (≈ 1.38 µM)
- MIC [24]: > 200 µg/mL
- MIC [25]: > 200 µg/mL

SMILES: [C-]#[N+]C12CC3(/C=C/C(=O)Nc4ccc(Cl)cc4)OC3C1O2 (stereo not drawn) [compound 40]
- MIC [1]: 0.1 µg/mL (≈ 0.33 µM)
- MIC [2]: < 0.05 µg/mL
- MIC [3]: > 200 µg/mL
- MIC [4]: < 0.05 µg/mL
- MIC [5]: 3.13 µg/mL (≈ 10.3 µM)
- MIC [6]: < 0.05 µg/mL
- MIC [7]: > 200 µg/mL
- MIC [8]: 0.1 µg/mL (≈ 0.33 µM)
- MIC [9]: < 0.05 µg/mL
- MIC (Enterobacter cloacae 963): 200 µg/mL (≈ 661 µM)
- MIC (Proteus vulgaris OX-19): 0.1 µg/mL (≈ 0.33 µM)
- MIC [10]: > 200 µg/mL
- MIC (Salmonella typhi 901): 0.39 µg/mL (≈ 1.29 µM)
- MIC [11]: 6.25 µg/mL (≈ 20.6 µM)
- MIC [12]: 3.13 µg/mL (≈ 10.3 µM)
- MIC [13]: 200 µg/mL (≈ 661 µM)
- MIC [14]: > 200 µg/mL
- MIC [15]: 1.56 µg/mL (≈ 5.15 µM)
- MIC [16]: > 200 µg/mL
- MIC [17]: 6.25 µg/mL (≈ 20.6 µM)
- MIC [18]: 0.1 µg/mL (≈ 0.33 µM)
- MIC [19]: > 200 µg/mL
- MIC [20]: 0.39 µg/mL (≈ 1.29 µM)
- MIC [21]: < 0.2 µg/mL
- MIC (Proteus vulgaris HX-19): < 0.05 µg/mL
- MIC [22]: > 200 µg/mL
- MIC [23]: 0.39 µg/mL (≈ 1.29 µM)
- MIC [24]: 12.5 µg/mL (≈ 41.3 µM)
- MIC [25]: > 200 µg/mL
